In patent US5614533A, “Substituted pipecolinic acid derivatives as HIV protease inhibitors” (Bio-Mega/Boehringer Ingelheim Research, Inc., priority 1994, dated 1997):
pEC50, pIC50: −log10 of the molar value. Like-named read-outs stand apart in the source and are kept apart here.

Legend:
[1] = tested on: HIV (H9/HTLV-IIIB) in C8166 cells; assay: plaque assay: inhibition of syncytia formation in HIV-infected C8166 cells; type: cell-based; settings: Human immunodeficiency virus 1, IIIB, 72 h, 50% inhibition of syncytia formation
Text: Typical of such procedures are those described by S. Harada and N. Yamamoto, Jpn. J. Cancer Res. (Gann), 76, 432 (1985), and S. Harada et al., Science, 229, 563 (1985). An assay based on the latter procedures is described in the examples hereinafter.
The following protocol, used for screening antiviral effects of the compounds of formula 1, is adapted from a plaque assay utilizing HTLV-I transformed cells, previously reported by Harada et al., supra. HTLV-I transformed cells are used because of the rapidity with which HIV will replicate in the cells.
1. The test compound is dissolved in dimethylsulfoxide to a concentration of 5 mg/mL. The resultant solution can be stored at 4° until use.
2. The resultant solution is diluted in RPMI 1640 (Gibco Laboratories, St. Lawrence, Mass., USA) to four times (4×) the final concentration which is to be tested. Once diluted in RPMI 1640, the solution is used in the cell culture assay within 4 h.
3. The 4× solution (50 μL) is added to triplicate wells of a 96 well flat bottomed microtiter plate. RPMI (50 μL) also is added to control wells.
4. C8166 cells (5×10^4) in 50 μL of HEPES-buffered RPMI 1640 (pH=7.2), 10% heat inactivated fetal calf serum (FCS), […] gentamicin (complete media) are added to all wells.
5. Fifty times TCID50 of H9/HTLV-IIIB stock (stored in liquid nitrogen as cell culture supernatant in 50% FCS) in 100 μL of complete media is added to all wells. Infectious titer of virus stocks are as previously determined by end point dilution on C8166 cells. Titer of stocks are stable for 6-12 months when stored at -193°.
6. Microtiter plates are then placed on level shelves of a 37°, 5% CO2 humidified incubator for 72 h.
7. Plates are then removed and centers of syncytia are counted in each well by low power phase contrast light microscopy. […] Control wells should have between 25 and 75 centers of syncytia per well.
8. Percent inhibition of syncytia formation is calculated by the formula: [formula]
The concentration of the test compound which causes a 50% inhibition of syncytia formation, i.e. the EC50, is determined by using the technique of serial dilution of the working solution at step 3 and by using non-linear regression analysis (SAS® program) to graphically plot the observed percent inhibition of syncytia formation against the various concentrations of the test compound.

HIV protease = biological target: T1, HIV protease (Human immunodeficiency virus type 1 group M subtype B, UniProt P04585); assay: Recombinant HIV Protease HPLC Assay; type: biochemical
T1 construct: HIV protease was expressed in E. coli; made in house; host or cells: E. coli (plasmid pBRT1 prt+)
Text: The procedure is based on the capacity of the test compound to inhibit enzymatic cleavage by HIV protease of a decapeptide (the substrate) having an amino acid sequence which includes a known HIV protease cleavage site of a HIV polyprotein; see H. G. Krausslich et al., Proc. Natl. Acad. Sci. USA, 86, 807 (1989). Details of this assay together with the results obtained for exemplified compounds of formula 1 are described in the examples hereinafter.
Recombinant HIV Protease HPLC Assay:
Enzyme: HIV protease was expressed in E. coli {construct pBRT1 prt^+, see W. G. Farmerie et al., Science, 236, 305 (1987)}, according to the following protocol:
E. coli cells containing the pBRT1 prt^+ plasmid were used to inoculate a seed culture media composed of Luria-Bertani Broth containing 100 μg/mL of ampicillin. Flasks were incubated at 37° under agitation for 17 h. Production flasks containing sterile M9 broth, supplemented with 100 μg/mL of ampicillin, were inoculated at a level of 1% (v/v) using the seed culture described above. Total volume in each production flask was 500 mL in a 2 L Erlenmeyer flask. Flasks were incubated at 37° under agitation until a cell concentration corresponding to an optical density ([…]) of 0.6 was reached (no dilution). This time span was routinely 3-4 h. Flasks were then supplemented with 5 mM isopropylthiogalactoside (IPTG, Research Organics, Cleveland, Ohio, USA) and incubation was continued until the cell concentration reached an optical density of 0.2 at 16-fold dilution. Flasks were then supplemented with 1 mM phenylmethylsulfonyl fluoride (PMSF) and rapidly chilled to 4°. The bacterial cells were recovered by centrifugation at 4°. The wet pellet was stored at -70°.
All steps below were performed at 4° unless otherwise indicated. Thawed cells were mixed with buffer A {50 mM tris(hydroxymethyl)[…] HCl (Tris-HCl, pH 7.4); 0.6 mM ethylenediaminetetraacetic acid (EDTA); 0.375M NaCl, 0.2% Nonidet P-40® (BDH Chemicals Ltd., Poole, UK); 1 mM PMSF}, at a ratio of one part cells to nine parts buffer A. Diatomaceous earth (Celite 545®, John Manville, Lompoc, Calif. USA) was added at a ratio of two parts to one part of wet cell weight. The resulting slurry was homogenized at high speed (ca. 20,000 rpm) on a Waring® industrial blender for 8×15 sec. pulses. Cell debris/Celite® was collected by centrifugation and the resulting pellet was extracted with 4.5 parts of buffer A to one part wet solids using the homogenization procedure described above. Supernatants from both homogenization steps were combined and soluble protein was precipitated by the addition of solid (NH4)2 SO4 to yield a final concentration of 75% saturation. This mixture was agitated for 60 min and the precipitate was recovered by centrifugation. The resulting pellet was suspended in buffer B {50 mM Tris-HCl, pH 8; 30 mM NaCl; 1 mM DL-dithiothreitol (DTT); 1 mM EDTA; 1 mM PMSF; 10% glycerol}, and dialyzed for 18 h against the same buffer.
An aliquot of the dialyzed extract containing 150 mg of the protein was loaded onto a Sephadex A25® anion exchange column (Pharmacia, Uppsala, Sweden) with bed dimensions of 70 cm length and 2.5 cm diameter. The sample was eluted isocratically with buffer B at a linear flow rate of 10 cm/h. Fractions containing HIV protease activity (see below for assay description) were combined, and soluble protein was precipitated by the addition of saturated aqueous (NH4)2 SO4 to yield a total (NH4)2 SO4 concentration of 85% saturation. Precipitated protein was removed by centrifugation and the resulting pellet was dissolved in buffer C {50 mM 2-(4-morpholino)ethanesulfonic acid (MES), pH 5.5; 150 mM NaCl; 1 mM DTT; 1 mM EDTA; 10% glycerol}. This preparation was dialyzed for 18 h against buffer C, and then frozen at -70°. All crude extracts were purified by chromatography in aliquots containing 150 mg of protein in the same manner as described above. […]

| SMILES | pEC50 ([1]; Table IV) | pIC50 (HIV protease; Table IV, 37°, 30 min, pH 5.5) | other results |
| --- | --- | --- | --- |
| CC(C)(C)NC(=O)[C@@H]1C[C@H](SCc2cccnc2)CCN1C[C@@H](O)[C@H](Cc1ccccc1)NC(=O)[C@@H](NC(=O)c1ccc2ccccc2n1)C(C)(C)C [Table VI, entry 5, N-tert-butyl-1-{2(R)-hydroxy-4-phenyl-3(S)-{{N-(2-quinolylinylcarbonyl)tert-butylglycyl}amino}butyl}-4(R)-{(3-pyridinylmethyl)thio}piperidine-2(S)-carboxamide] | – | – | pEC50 ([1]; Table VI): 8.10; pIC50 (HIV protease; Table VI, 37°, 30 min, pH 5.5): 8.66 |
| CC(C)[C@H](NC(=O)c1ccc2ccccc2n1)C(=O)N[C@@H](Cc1ccccc1)[C@H](O)CN1CC[C@@H](OCc2ccccn2)C[C@H]1C(=O)NC(C)(C)C [Table V, entry 3, N-tert-butyl-1-{2(R)-hydroxy-4-phenyl-3(S)-{{N-(2-quinolylinylcarbonyl)valyl}amino}butyl}-4(R)-(2-pyridinylmethoxy)piperidine-2-carboxamide] | – | – | pEC50 ([1]; Table V): 7.62; pIC50 (HIV protease; Table V, 37°, 30 min, pH 5.5): 8.41 |
| CC[C@H](C)[C@H](NC(=O)OCc1ccccn1)C(=O)N[C@@H](Cc1ccccc1)[C@H](O)CN1CC[C@@H](c2ccccc2)C[C@H]1C(=O)NC(C)(C)C [Table IV, entry 27, N-tert-butyl-1-{2(R)-hydroxy-4-phenyl-3(S)-{{N-{(2-pyridinylmethoxy)carbonyl}isoleucyl}amino}butyl}-4(R)-phenylpiperidine-2(S)-carboxamide] | 6.30 | 8.31 | – |
| CC(C)(C)NC(=O)[C@@H]1C[C@H](S(=O)(=O)c2ccccc2)CCN1C[C@@H](O)[C@H](Cc1ccccc1)NC(=O)[C@H](CC(N)=O)NC(=O)OCc1ccccc1 [Table IV, entry 15] | 5.90 | 8.54 | – |
| Cc1cc(C)nc(S[C@@H]2CCN(C[C@@H](O)[C@H](Cc3ccccc3)NC(=O)OCc3ccccc3)[C@H](C(=O)NC(C)(C)C)C2)n1 [Table IV, entry 31, N-tert-butyl-1-{3(S)-(benzyloxycarbonylamino)-2(R)-hydroxy-4-phenylbutyl}-4(R)-(4,6-dimethyl-2-pyrimidinylthio)-piperidine-2(S)-carboxamide] | 6.54 | – | pIC50 (HIV protease): 7.92 |

Second part, led by results:

| pEC50 ([1]; Table IV) | pIC50 (HIV protease; Table IV, 37°, 30 min, pH 5.5) | SMILES | other results |
| --- | --- | --- | --- |
| 7.85 | 8.37 | CC(C)[C@H](NC(=O)N(C)Cc1ccccn1)C(=O)N[C@@H](Cc1ccccc1)[C@H](O)CN1CC[C@@H](Sc2ccccc2)C[C@H]1C(=O)NC(C)(C)C [Table IV, entry 38, N-tert-butyl-1-{2(R)-hydroxy-3(S)-{N-{{N-methyl-N-(2-pyridinylmethyl)amino}carbonyl}valyl}-4-phenylbutyl}-4(R)-(phenylthio)piperidine-2(S)-carboxamide] | – |
| 7.82 | 8.43 | CC(C)[C@H](NC(=O)OCc1ccccc1)C(=O)N[C@@H](Cc1ccccc1)[C@H](O)CN1CC[C@@H](Sc2ncccn2)C[C@H]1C(=O)NC(C)(C)C [Table IV, entry 35, N-tert-butyl-1-{3(S)-{{N-(benzyloxycarbonyl)valyl}amino}-2(R)-hydroxy-4-phenylbutyl}-4(R)-(2-pyrimidinylthio)piperidine-2(S)-carboxamide] | – |
| 7.89 | 8.41 | CC(C)[C@H](NC(=O)OCc1ccccc1)C(=O)N[C@@H](Cc1ccccc1)[C@H](O)CN1CC[C@@H](Sc2ccccc2)C[C@H]1C(=O)NC(C)(C)C [Table IV, entry 8] | – |
| 7.62 | 8.46 | CC(C)[C@H](NC(=O)OCc1ccccc1)C(=O)N[C@@H](Cc1ccc(F)cc1)[C@H](O)CN1CC[C@@H](Sc2ccccc2)C[C@H]1C(=O)NC(C)(C)C [Table IV, entry 26, N-tert-butyl-1-{3(S)-{{N-(benzyloxycarbonyl)valyl}amino}-2(R)-hydroxy-4-(4-fluorophenyl)butyl}-4(R)-(phenylthio)piperidine-2(S)-carboxamide] | – |
| 7.37 | 8.40 | CC(C)(C)NC(=O)[C@@H]1C[C@H](Sc2ccccc2)CCN1C[C@@H](O)[C@H](Cc1ccccc1)NC(=O)[C@H](CC(N)=O)NC(=O)OCc1ccccc1 [Table IV, entry 9, N-tert-butyl-1-{3(S)-{{N-(benzyloxycarbonyl)asparaginyl}amino}-2(R)-hydroxy-4-phenylbutyl}-4(R)-(phenylthio)piperidine-2(S)-carboxamide] | – |
